Experiments:
[1] = test system: learning and memory; conditions: intranasal administration, young unimpaired human subjects, compared with placebo treatment; cited from earlier work
[2] = test system: recall of learned information; conditions: two patients given bilateral electroconvulsive shock therapy (ECT); cited from earlier work
[3] = test system: amnesia produced by electroconvulsive shock; experiment: reversal of electroconvulsive shock-induced amnesia, rats; assay type: in vivo
[4] = test system: amnesia produced by electroconvulsive shock; experiment: reversal of electroconvulsive shock-induced amnesia, mice; assay type: in vivo
Procedure: The modified peptides in accordance with this invention are effective in treating senility, in enhancing memory, or of reversing the effects of electroconvulsive shock-induced amnesia. The effectiveness of these compounds is determined by the test designed to show the compound's ability to reverse amnesia produced by electroconvulsive shock. The test is more fully described in U.S. Pat. No. 4,145,347, issued Mar. 20, 1979, the disclosure of which is herein incorporated by reference. The only deviation in the present instance is that the compounds tested are administered orally, and the duration of the electroconvulsive shock administered is 1.0 seconds.

[5] = test system: amnesia produced by electroconvulsive shock; experiment: as above; assay type: in vivo; remark: listed apart in the source
[6] = test system: pole-climbing avoidance; conditions: cited from earlier work

Molecule | % Amnesia Reversal Rats ([3]; dose 0.001 mg/kg IM) | Amnesia reversal rating, rats ([3]; dose 0.001 mg/kg IM) | % Amnesia Reversal Rats ([3]; dose 0.010 mg/kg IM) | Amnesia reversal rating, rats ([3]; dose 0.010 mg/kg IM) | % Amnesia Reversal Rats ([3]; dose 0.100 mg/kg IM) | Amnesia reversal rating, rats ([3]; dose 0.100 mg/kg IM) | further results
1-desamino-8-D-arginine vasopressin [DDAVP] |  |  |  |  |  |  | effect on learning and memory [1]: increases in learning and memory; effect on recall of learned information [2]: Positive effects on recall of learned information
CC(C)C[C@@H](CSCC(=O)O)NC(=O)[C@@H]1CCC(=O)N1C(=O)OCc1ccccc1 (relative stereo) [Z3-KetoProLeu[CH2 S]Gly, [S-(R*,R*)]-Phenylmethyl 5-oxo-2-[[[1-[[(carboxymethyl)thio]methyl]-3-methylbutyl]amino]carbonyl]-1-pyrrolidinecarboxylate] | 33% | C (25 to 39 percent amnesia reversal (borderline activity=C)) | 0% | N (0 to 25 percent amnesia reversal (inactive=N)) | 0% | N (0 to 25 percent amnesia reversal (inactive=N)) | 
CC(C)C[C@@H](CNCC(N)=O)NC(=O)[C@@H]1CCCN1C(=O)OCc1ccccc1.Cl (relative stereo) [ZProLeu[CH2 NH]GlyNH2, [S-(R*,R*)]-2-[[[1-[[(2-Amino-2-oxoethyl)-amino]methyl]-3-methylbutyl]amino]-carbonyl]-1-pyrrolidinecarboxylic acid, phenylmethyl ester, monohydrochloride] | 43% | A (40 percent or more amnesia reversal (active=A)) | 43% | A (40 percent or more amnesia reversal (active=A)) | 43% | A (40 percent or more amnesia reversal (active=A)) | 
CC(C)C[C@H](NC[C@@H]1CCCN1C(=O)OCc1ccccc1)C(=O)NCC(N)=O (relative stereo) [ZPro[CH2 NH]LeuGlyNH2, [S-(R*,R*)]-2-[[[[1-[(2-Amino-2-oxoethyl)amino]carbonyl]-3-methylbutyl]amino]methyl]-1-pyrrolidinecarboxylic acid, phenylmethyl ester] | 11% | N (0 to 25 percent amnesia reversal (inactive=N)) | 0% | N (0 to 25 percent amnesia reversal (inactive=N)) | 0% | N (0 to 25 percent amnesia reversal (inactive=N)) | % Amnesia Reversal Mice ([4]; dose 1 mg/kg PO): 85%; Amnesia reversal rating, mice ([4]; dose 1 mg/kg PO): A (40 percent or more amnesia reversal (active=A)); % Amnesia Reversal Mice ([4]; dose 10 mg/kg PO): 67%; Amnesia reversal rating, mice ([4]; dose 10 mg/kg PO): A (40 percent or more amnesia reversal (active=A)); % Amnesia Reversal Mice ([4]; dose 100 mg/kg PO): 57%; Amnesia reversal rating, mice ([4]; dose 100 mg/kg PO): A (40 percent or more amnesia reversal (active=A))
Cc1ccc(S(=O)(=O)N2CCCC2CN[C@@H](CC(C)C)C(=O)NCC(N)=O)cc1 (stereo partly drawn) [TosPro[CH2 NH]DLeuGlyNH2, (S)-N^2-[[1-[(4-Methylphenyl)sulfonyl]-2-pyrrolidinyl]methyl]-D-Leucylglycinamide] | 0% | N (0 to 25 percent amnesia reversal (inactive=N)) | 0% | N (0 to 25 percent amnesia reversal (inactive=N)) | 34% | C (25 to 39 percent amnesia reversal (borderline activity=C)) | 
CC(C)CC(CSCC(=O)O)NC(=O)C1CC(=O)CN1C(=O)OCc1ccccc1 (stereo not drawn) [Z4-Keto ProLeu[CH2 S]Gly, [S-(R*,R*)]-Phenylmethyl 2-[[[1-[[(carboxymethyl)thio]methyl]-3-methylbutyl]amino]carbonyl]-4-oxo-1-pyrrolidinecarboxylate] | 17% | N (0 to 25 percent amnesia reversal (inactive=N)) | 50% | A (40 percent or more amnesia reversal (active=A)) | 83% | A (40 percent or more amnesia reversal (active=A)) | 
CC(C)CC(CSCC(=O)O)NC(=O)C1CCCN1C(=O)OCc1ccccc1 (stereo not drawn) [ZProLeu[CH2 S]Gly, [2S-(R*,R*)]-Phenylmethyl2-[[[1-[[(carboxymethyl)thio]methyl]-3-methylbutyl]amino]carbonyl]-1-pyrrolidinecarboxylate] | 57% | N (0 to 25 percent amnesia reversal (inactive=N)) | 57% | A (40 percent or more amnesia reversal (active=A)) | 14% | N (0 to 25 percent amnesia reversal (inactive=N)) | % Amnesia Reversal Mice ([5]; dose 0.1 mg/kg IM): 69%; Amnesia reversal rating, mice ([5]; dose 0.1 mg/kg IM): A (40 percent or more amnesia reversal (active=A)); % Amnesia Reversal Mice ([5]; dose 1.0 mg/kg IM): 77%; Amnesia reversal rating, mice ([5]; dose 1.0 mg/kg IM): A (40 percent or more amnesia reversal (active=A)); % Amnesia Reversal Mice ([5]; dose 10.0 mg/kg IM): 69%; Amnesia reversal rating, mice ([5]; dose 10.0 mg/kg IM): A (40 percent or more amnesia reversal (active=A))
NC(=O)COCC(Cc1ccccc1)NC(=O)[C@@H]1CCCN1C(=O)OCc1ccccc1 (stereo partly drawn) [ZProPhe[CH2 O]GlyNH2, (2S)-Phenylmethyl 2[[[1-[(2-amino-2-oxoethoxy)methyl]-2-phenylethyl]amino]carbonyl]-1-pyrrolidinecarboxylate] | 11% | N (0 to 25 percent amnesia reversal (inactive=N)) | 0% | N (0 to 25 percent amnesia reversal (inactive=N)) | 0% | N (0 to 25 percent amnesia reversal (inactive=N)) | % Amnesia Reversal Mice ([4]; dose 1 mg/kg PO): 20%; Amnesia reversal rating, mice ([4]; dose 1 mg/kg PO): N (0 to 25 percent amnesia reversal (inactive=N)); % Amnesia Reversal Mice ([4]; dose 10 mg/kg PO): 59%; Amnesia reversal rating, mice ([4]; dose 10 mg/kg PO): A (40 percent or more amnesia reversal (active=A)); % Amnesia Reversal Mice ([4]; dose 100 mg/kg PO): 71%; Amnesia reversal rating, mice ([4]; dose 100 mg/kg PO): A (40 percent or more amnesia reversal (active=A))
NC(=O)CC[C@@H]1NC(=O)[C@H](Cc2ccccc2)NC(=O)[C@H](Cc2ccc(O)cc2)NC(=O)[C@@H](N)CSSC[C@@H](C(=O)N2CCC[C@H]2C(=O)N[C@@H](CCCN=C(N)N)C(=O)NCC(N)=O)NC(=O)[C@H](CC(N)=O)NC1=O [vasopressin] |  |  |  |  |  |  | effect on learning and memory [1]: increases in learning and memory
Pro-Arg-Gly-NH2 |  |  |  |  |  |  | activity in the rat pole-climbing avoidance test [6]: active

— US4596819A, “Modified tripeptides” (Warner-Lambert Company, priority 1984, dated 1986)
